Test systems include CAKI-1 renal; OVCAR-4 ovarian; EKVX NSCLC; HL-60(TB) leukemia; NCI-H522 lung; SK-MEL-2 melanoma; MDA-MB-231 breast; ACHN renal; HS 578T breast; MDA-N.
Holding throughout (assay): DTP human tumour cell line panel, 48 h

17 compounds from PubChem BioAssay (NCI) can be followed below.

SMILES strings stand for the structures.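 Grown in 96-well plates, cells were treated for 48 hours with each compound at five concentrations. Insufficient inhibition: endpoint recorded as highest concentration tested. The concentration for full growth arrest is given as TGI.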

Take `Cc1nn(C(=O)c2ccc(Cl)cc2)c2c1C(c1ccco1)SC(N)=N2` (stereo not given): the TGI with CAKI-1 renal, in the experiment on OVCAR-4 ovarian, with EKVX NSCLC, in the experiment with HL-60(TB) leukemia, with NCI-H522 lung and with SK-MEL-2 melanoma was greater than 10 µM each time. Moreover, the TGI with MDA-MB-231 breast, in the experiment on ACHN renal, with HS 578T breast and in the experiment on MDA-N was greater than 10 µM in each case.

With `C/C(NC(=O)c1ccccc1)=C(/C(=O)c1ccccc1)[C@@H]1OC(C)(C)O[C@@H]1[C@H]1COC(C)(C)O1`, the TGI (as a rule, the concentration at which net growth stops) was greater than 100 µM in the experiment on CAKI-1 renal; greater than 100 µM in the experiment on OVCAR-4 ovarian; 48.4 µM with EKVX NSCLC; 43.8 µM in the experiment on HL-60(TB) leukemia; 36 µM in the experiment with NCI-H522 lung; 54.9 µM in the experiment on SK-MEL-2 melanoma. In addition, the TGI in the experiment with MDA-MB-231 breast is greater than 100 µM; in the experiment on ACHN renal it was greater than 100 µM; with HS 578T breast, greater than 100 µM; in the experiment with MDA-N, 39.1 µM.

As for `CCOC(=O)O/N=C1/C(c2c(O)[nH]c3ccccc23)=Nc2ccccc21`, the TGI amounted to 14.5 µM in the experiment with CAKI-1 renal; 45.2 µM in the experiment with OVCAR-4 ovarian; 13.5 µM in the experiment on EKVX NSCLC; 24.1 µM in the experiment with HL-60(TB) leukemia; 30.2 µM with NCI-H522 lung; 8.18 µM in the experiment with SK-MEL-2 melanoma. For the same compound, the TGI in the experiment on MDA-MB-231 breast was found to be 63 µM; in the experiment with ACHN renal, 33.1 µM; in the experiment with HS 578T breast it was 51.8 µM; in the experiment with MDA-N, 19.3 µM.

Regarding `OCCNc1nc2c(N3CCCC3)nc(N3CCNCC3)nc2nc1NCc1ccccc1`, the TGI stood at 31.4 µM in the experiment on CAKI-1 renal; 32.2 µM in the experiment on OVCAR-4 ovarian; 26.9 µM in the experiment with EKVX NSCLC; 32.8 µM in the experiment with HL-60(TB) leukemia; 30.7 µM in the experiment with NCI-H522 lung; 28.7 µM with SK-MEL-2 melanoma. For the same compound, the TGI came to 29.4 µM in the experiment with MDA-MB-231 breast, 28.9 µM in the experiment with ACHN renal, 51.4 µM with HS 578T breast and 24.7 µM in the experiment with MDA-N.

Consider `CSc1nc(=O)c(C#N)c(-c2ccccc2)n1C1OC(COC(C)=O)C(OC(C)=O)C(OC(C)=O)C1OC(C)=O` (stereo not given), for which the TGI in the experiment with CAKI-1 renal, in the experiment with OVCAR-4 ovarian, with EKVX NSCLC, in the experiment on HL-60(TB) leukemia, in the experiment with NCI-H522 lung and in the experiment with SK-MEL-2 melanoma was greater than 100 µM throughout. The TGI in the experiment on MDA-MB-231 breast, in the experiment with ACHN renal, with HS 578T breast and in the experiment with MDA-N was greater than 100 µM each time.

As to `O=C(CCC(=O)OCC1OC(O)(CC2OC(CO)C(O)C(O)C2O)C(O)C1O)OCc1ccccc1` (stereo not given), the TGI with CAKI-1 renal, with OVCAR-4 ovarian, with EKVX NSCLC, in the experiment on HL-60(TB) leukemia, in the experiment with NCI-H522 lung and in the experiment with SK-MEL-2 melanoma was greater than 100 µM throughout. Also, the TGI in the experiment with MDA-MB-231 breast, in the experiment with ACHN renal, with HS 578T breast and in the experiment on MDA-N was greater than 100 µM in each case.

As for `CCOC(=O)C12C(=O)CCN1CCc1ccccc1C2C` (stereo not given), the TGI in the experiment with CAKI-1 renal, in the experiment on OVCAR-4 ovarian, with EKVX NSCLC, with HL-60(TB) leukemia, in the experiment with NCI-H522 lung and in the experiment with SK-MEL-2 melanoma was greater than 100 µM in each case. The TGI with MDA-MB-231 breast, with ACHN renal, in the experiment with HS 578T breast and in the experiment on MDA-N was greater than 100 µM each time.

As for `OC1(c2ccc(Cl)cc2)c2ccccc2C2=NCc3ccccc3CN21` (stereo not given), the TGI worked out at 37.7 µM in the experiment on CAKI-1 renal; 25.6 µM in the experiment on OVCAR-4 ovarian; 20.6 µM with EKVX NSCLC; 17.4 µM in the experiment on HL-60(TB) leukemia; 27.7 µM in the experiment with NCI-H522 lung; 16.9 µM in the experiment on SK-MEL-2 melanoma. In addition, the TGI was found to be 37.9 µM in the experiment with MDA-MB-231 breast, 17.8 µM in the experiment on ACHN renal, 32.5 µM in the experiment with HS 578T breast and 26.5 µM with MDA-N.

Take `C=C1[C@H](OCC(C)C)[C@@H](OC(=O)C(C)CC)[C@@H](O)C(C)(C)/C=C/[C@H](C)C(=O)[C@@]2(O)C[C@H](C)[C@H](O)[C@@H]2[C@H]1OC(=O)C(C)CC` (stereo not given in full): the TGI in the experiment with CAKI-1 renal is greater than 18.7 µM; in the experiment with OVCAR-4 ovarian it was greater than 20 µM; with EKVX NSCLC, greater than 20 µM; with HL-60(TB) leukemia, 19 µM; with NCI-H522 lung, greater than 20 µM; with SK-MEL-2 melanoma, greater than 15 µM. The TGI with MDA-MB-231 breast was greater than 12.5 µM; in the experiment on ACHN renal, greater than 13 µM; in the experiment on HS 578T breast, 10.6 µM; in the experiment with MDA-N it was greater than 20 µM.

As to `CC(C)(CN1CCCCC1)C(=O)/C=C/c1c(Cl)cccc1Cl`, the TGI is 2.78 µM in the experiment on CAKI-1 renal; 4.98 µM in the experiment with OVCAR-4 ovarian; 3.24 µM in the experiment with EKVX NSCLC; 4.37 µM in the experiment on HL-60(TB) leukemia; 0.913 µM in the experiment with NCI-H522 lung; 3.73 µM in the experiment on SK-MEL-2 melanoma. In addition, the TGI in the experiment on MDA-MB-231 breast amounted to 2.15 µM; in the experiment with ACHN renal, 3.28 µM; in the experiment on HS 578T breast it was 8.8 µM; in the experiment with MDA-N, 2.38 µM.

On to `Cc1ccnc2sc3ccccc3c(=O)c12`, for which the TGI in the experiment on CAKI-1 renal is 61.5 µM; in the experiment with OVCAR-4 ovarian it was greater than 100 µM; in the experiment with EKVX NSCLC it was 94.4 µM; with HL-60(TB) leukemia, greater than 100 µM; in the experiment on NCI-H522 lung it was 99.2 µM; in the experiment on SK-MEL-2 melanoma, greater than 100 µM. Further, the TGI in the experiment with MDA-MB-231 breast is greater than 100 µM; in the experiment on ACHN renal, greater than 100 µM; in the experiment on HS 578T breast, 77.6 µM; in the experiment with MDA-N, greater than 100 µM.

In the case of `CC1=CC(=O)/C(=C/N2CCNC2=S)C(=O)O1`, the TGI in the experiment on CAKI-1 renal, with OVCAR-4 ovarian, in the experiment on EKVX NSCLC, in the experiment with HL-60(TB) leukemia, with NCI-H522 lung and in the experiment with SK-MEL-2 melanoma was greater than 100 µM in each case. Besides, the TGI in the experiment with MDA-MB-231 breast, with ACHN renal, in the experiment on HS 578T breast and with MDA-N was greater than 100 µM each time.

Regarding `CC12CCC(C1)C(C)(C)C2OC(=O)c1ccccc1C(=O)O` (stereo not given), the TGI in the experiment with CAKI-1 renal, in the experiment on OVCAR-4 ovarian, in the experiment with EKVX NSCLC, in the experiment with HL-60(TB) leukemia, in the experiment with NCI-H522 lung and in the experiment on SK-MEL-2 melanoma was greater than 100 µM in each case. Moreover, the TGI in the experiment with MDA-MB-231 breast, in the experiment on ACHN renal, in the experiment with HS 578T breast and in the experiment with MDA-N was greater than 100 µM in each case.

As to `COC1=CCC2=C(CCN(C(=O)C3CCC3)C2Cc2ccc(OC)c(O)c2)C1` (stereo not given), the TGI in the experiment on CAKI-1 renal is greater than 100 µM; with OVCAR-4 ovarian, greater than 100 µM; in the experiment with EKVX NSCLC it was 88.9 µM; with HL-60(TB) leukemia it was 51.5 µM; in the experiment on NCI-H522 lung, 42 µM; in the experiment with SK-MEL-2 melanoma, greater than 100 µM. The TGI in the experiment with MDA-MB-231 breast was greater than 100 µM; in the experiment on ACHN renal, greater than 100 µM; in the experiment on HS 578T breast it was 66.6 µM; in the experiment on MDA-N, 9.04 µM.

For `CN(C)/C=N/S(=O)(=O)c1nn2c(C=O)c(-c3cc4ccccc4oc3=O)nc2s1`, the TGI amounted to 4.95 µM with CAKI-1 renal; 28.3 µM with OVCAR-4 ovarian; 43 µM with EKVX NSCLC; 4.05 µM in the experiment with HL-60(TB) leukemia; 3.09 µM with NCI-H522 lung; 40.1 µM in the experiment on SK-MEL-2 melanoma. In addition, the TGI is 32.3 µM in the experiment on MDA-MB-231 breast, 5.9 µM in the experiment with ACHN renal, greater than 27 µM with HS 578T breast and 20.7 µM in the experiment on MDA-N.

For `COC1=C(OC)C(=O)C(Cc2c(Cl)nc3n2CCS3)=C(C)C1=O`, the TGI with CAKI-1 renal was 46.7 µM; with OVCAR-4 ovarian, 21 µM; in the experiment with EKVX NSCLC it was 26.3 µM; in the experiment on HL-60(TB) leukemia, 6.4 µM; with NCI-H522 lung it was 25.4 µM; with SK-MEL-2 melanoma, 32.2 µM. The TGI with MDA-MB-231 breast came out at 27.5 µM; in the experiment with ACHN renal, 33.2 µM; with HS 578T breast, 66.1 µM; in the experiment on MDA-N it was 26.8 µM.

Turning to `COc1cc(C)cc(OC)c1/C=C/C(=O)O`, the TGI in the experiment on CAKI-1 renal, in the experiment with OVCAR-4 ovarian, with EKVX NSCLC, in the experiment with HL-60(TB) leukemia, in the experiment on NCI-H522 lung and in the experiment on SK-MEL-2 melanoma was greater than 100 µM throughout. In addition, the TGI in the experiment on MDA-MB-231 breast, in the experiment with ACHN renal, in the experiment with HS 578T breast and in the experiment with MDA-N was greater than 100 µM in each case.
